Data taken from publication PMC9395488, “First-in-human study of IM156, a novel potent biguanide oxidative phosphorylation (OXPHOS) inhibitor, in patients with advanced solid tumors” (Investigational New Drugs, 2022).

Tested on: patients with advanced solid tumors
Assay: First-in-human phase 1 dose-escalation study: safety, DLTs, adverse events
Format: in vivo
Excerpt: This multicenter first-in-human dose-escalation phase 1 study (clinicaltrials.gov identifier: NCT03272256) was designed to determine the MTD or RP2D and to evaluate the safety and tolerability of IM156. Secondary endpoints included PK characteristics, efficacy assessment (objective response rate [ORR], disease control rate [DCR], duration of response [DoR] and progression-free survival [PFS]). Furthermore, exploratory objectives included identification and profiling of IM156 metabolites, evaluations of exploratory PD markers of IM156, and evaluations of any potential relationship between putative biomarkers and safety/efficacy parameters of IM156. The study was conducted in accordance with Good Clinical Practice, the International Council for Harmonisation, and guidelines governing clinical study conduct and the ethical principles originating from the Declaration of Helsinki. The study was approved by each Institutional Review Board and patients provided written informed consent. Patients were enrolled at three sites in South Korea.
The initial dose and schedule of IM156 was chosen based on animal toxicology studies. […] IM156 was administered in the fasted state, with no food for at least 2 h before and 1 h after dosing.
Three DLT-evaluable patients were enrolled at each dose level. If there were no DLTs or other prohibitive adverse events (AEs), the Safety Committee was allowed to recommend escalation to the next highest dose level. If 1 DLT occurred in the first 3 DLT-evaluable patients, enrollment in that cohort was expanded to an additional 3 DLT-evaluable patients; if ≥ 2 DLTs were reported in a cohort, that dose was considered above the MTD.
Safety was assessed through vital signs, weight, laboratory assessments, physical examinations, electrocardiogram, and reporting of AEs as graded by the National Cancer Institute’s Common Terminology Criteria for Adverse Events v4.03 (NCI-CTCAE).
DLTs were defined as the following AEs if they were attributed as related to IM156: asymptomatic grade 4 neutropenia lasting for ≥ 5 days; febrile neutropenia, regardless of grade; grade 4 thrombocytopenia or grade 3 thrombocytopenia with bleeding; any grade ≥ 3 non-hematologic AE (except grade 3 hypertension and grade 3 nausea, vomiting or diarrhea for which proper measures for prevention and treatment were not implemented, and alopecia); blood lactate levels > 5 mmol; grade ≥ 2 AE prohibiting dosing of IM156 for ≥ 21 continuous days except for alterations in serum calcium or phosphorus levels. The safety analysis includes all patients who received at least one dose of study drug.
The safety population was defined as all patients who received at least one dose of IM156. The PK population was not defined in the protocol but included all patients with sufficient PK data to perform adequate PK modeling. The efficacy population included all patients who underwent at least one tumor imaging assessment while receiving IM156. Safety was assessed using descriptive statistics (e.g., DLTs, AEs, laboratory tests, physical examination, 12-lead ECG). The incidence and number of events were reported for the DLTs observed in Cycle 1 per dose group. […] Adverse events and TRAEs were standardized with the System Organ Class and the Preferred Term using the Medical Dictionary for Regulatory Activities v23.0. In addition, TEAEs, serious adverse events (SAEs), TEAE severity, and TEAEs leading to withdrawal were presented by dose group. Efficacy data were to be presented by Waterfall and Swim Lane plots. Time to event endpoints (e.g., DoR, PFS) were determined using Kaplan–Meier estimations with the median value for each endpoint summarized.

[1] = DL1 100 mg orally every other day (n=3)
[2] = DL2 200 mg orally every other day (n=3)

Structure (SMILES): NC(=Nc1ccc(OC(F)(F)F)cc1)N=C(N)N1CCCC1 [IM156]
- TEAE Psychiatric disorders grade 1 [1]: 0
- TEAE Psychiatric disorders grade 2 [1]: 0
- TEAE Psychiatric disorders grade 3 [1]: 0
- TEAE Psychiatric disorders grade 4 [1]: 0
- TEAE Purpura grade 1 [1]: 0
- TEAE Purpura grade 2 [1]: 0
- TEAE Purpura grade 3 [1]: 0
- TEAE Purpura grade 4 [1]: 0
- TEAE Urinary retention grade 1 [1]: 0
- TEAE Urinary retention grade 2 [1]: 0
- TEAE Urinary retention grade 3 [1]: 0
- TEAE Urinary retention grade 4 [1]: 0
- TEAE Urinary tract disorder grade 1 [1]: 0
- TEAE Urinary tract disorder grade 2 [1]: 0
- TEAE Urinary tract disorder grade 3 [1]: 0
- TEAE Urinary tract disorder grade 4 [1]: 0
- TEAE Abdominal pain, grade 2 (DL2 200 mg QOD (n=3)): 1
- TEAE Alanine aminotransferase increased, grade 1 (DL2 200 mg QOD (n=3)): 1
- TEAE Asthenia, grade 1 (DL2 200 mg QOD (n=3)): 1
- TEAE Cough, grade 1 (DL2 200 mg QOD (n=3)): 1
- TEAE Diarrhoea, grade 2 (DL2 200 mg QOD (n=3)): 1
- TEAE Ileus, grade 3 (DL2 200 mg QOD (n=3)): 1
- TEAE Nausea, grade 1 (DL2 200 mg QOD (n=3)): 1
- TEAE Pleural effusion, grade 2 (DL2 200 mg QOD (n=3)): 1
- TEAE Pyrexia, grade 1 (DL2 200 mg QOD (n=3)): 1
- TEAE Vomiting, grade 1 (DL2 200 mg QOD (n=3)): 2
- TRAE Abdominal Pain, > G3 (patients) (DL2 200 mg QOD oral, N = 3): 0
- TRAE Abdominal Pain, All grades (patients) (DL2 200 mg QOD oral, N = 3): 0
- TRAE Blood Lactic Acid increased, > G3 (patients) (DL2 200 mg QOD oral, N = 3): 0
- TRAE Blood Lactic Acid increased, All grades (patients) (DL2 200 mg QOD oral, N = 3): 0
- TRAE Constipation, > G3 (patients) (DL2 200 mg QOD oral, N = 3): 0
- TRAE Constipation, All grades (patients) (DL2 200 mg QOD oral, N = 3): 0
- TRAE Decreased appetite, > G3 (patients) (DL2 200 mg QOD oral, N = 3): 0
- TRAE Decreased appetite, All grades (patients) (DL2 200 mg QOD oral, N = 3): 1
- TRAE Diarrhoea, > G3 (patients) (DL2 200 mg QOD oral, N = 3): 0
- TRAE Diarrhoea, All grades (patients) (DL2 200 mg QOD oral, N = 3): 1
- TRAE Fatigue, > G3 (patients) (DL2 200 mg QOD oral, N = 3): 0
- TRAE Fatigue, All grades (patients) (DL2 200 mg QOD oral, N = 3): 0
- TRAE Insomnia, > G3 (patients) (DL2 200 mg QOD oral, N = 3): 0
- TRAE Insomnia, All grades (patients) (DL2 200 mg QOD oral, N = 3): 1
- TRAE Nausea, > G3 (patients) (DL2 200 mg QOD oral, N = 3): 0
- TRAE Nausea, All grades (patients) (DL2 200 mg QOD oral, N = 3): 1
- TRAE Vomiting, > G3 (patients) (DL2 200 mg QOD oral, N = 3): 0
- TRAE Vomiting, All grades (patients) (DL2 200 mg QOD oral, N = 3): 2
- TEAE Adrenal insufficiency grade 1 [2]: 0
- TEAE Adrenal insufficiency grade 2 [2]: 0
- TEAE Adrenal insufficiency grade 3 [2]: 0
- TEAE Adrenal insufficiency grade 4 [2]: 0
- TEAE Anaemia grade 1 [2]: 0
- TEAE Anaemia grade 2 [2]: 1
- TEAE Anaemia grade 3 [2]: 0
- TEAE Anaemia grade 4 [2]: 0
- TEAE Appendicitis perforated grade 1 [2]: 0
- TEAE Appendicitis perforated grade 2 [2]: 0
- TEAE Appendicitis perforated grade 3 [2]: 0
- TEAE Appendicitis perforated grade 4 [2]: 0
- TEAE Back pain grade 1 [2]: 0
- TEAE Back pain grade 2 [2]: 0
- TEAE Back pain grade 3 [2]: 0
- TEAE Back pain grade 4 [2]: 0
- TEAE Cystitis grade 1 [2]: 0
- TEAE Cystitis grade 2 [2]: 0
- TEAE Cystitis grade 3 [2]: 0
- TEAE Cystitis grade 4 [2]: 0
- TEAE Dry skin grade 1 [2]: 0
- TEAE Dry skin grade 2 [2]: 0
- TEAE Dry skin grade 3 [2]: 0
- TEAE Dry skin grade 4 [2]: 0
- TEAE Flank pain grade 1 [2]: 0
- TEAE Flank pain grade 2 [2]: 1
- TEAE Flank pain grade 3 [2]: 0
- TEAE Flank pain grade 4 [2]: 0
- TEAE Hypertension grade 1 [2]: 0
- TEAE Hypertension grade 2 [2]: 0
- TEAE Hypertension grade 3 [2]: 0
- TEAE Hypertension grade 4 [2]: 0
- TEAE Hypotension grade 1 [2]: 0
- TEAE Hypotension grade 2 [2]: 0
- TEAE Hypotension grade 3 [2]: 0
- TEAE Hypotension grade 4 [2]: 0
- TEAE Insomnia grade 1 [2]: 0
- TEAE Insomnia grade 2 [2]: 1
- TEAE Insomnia grade 3 [2]: 0
- TEAE Insomnia grade 4 [2]: 0
- TEAE Pain in extremity grade 1 [2]: 0
- TEAE Pain in extremity grade 2 [2]: 0
- TEAE Pain in extremity grade 3 [2]: 0
- TEAE Pain in extremity grade 4 [2]: 0
- TEAE Pruritus grade 1 [2]: 0
- TEAE Pruritus grade 2 [2]: 0
- TEAE Pruritus grade 3 [2]: 0
- TEAE Pruritus grade 4 [2]: 0
- TEAE Psychiatric disorders grade 1 [2]: 0
- TEAE Psychiatric disorders grade 2 [2]: 1
- TEAE Psychiatric disorders grade 3 [2]: 0
- TEAE Psychiatric disorders grade 4 [2]: 0
- TEAE Purpura grade 1 [2]: 0
- TEAE Purpura grade 2 [2]: 0
- TEAE Purpura grade 3 [2]: 0
- TEAE Purpura grade 4 [2]: 0
- TEAE Urinary retention grade 1 [2]: 0
- TEAE Urinary retention grade 2 [2]: 0
- TEAE Urinary retention grade 3 [2]: 0
- TEAE Urinary retention grade 4 [2]: 0
- TEAE Urinary tract disorder grade 1 [2]: 0
- TEAE Urinary tract disorder grade 2 [2]: 0
- TEAE Urinary tract disorder grade 3 [2]: 0
- TEAE Urinary tract disorder grade 4 [2]: 0
- TEAE Cough, grade 1 (DL3 400 mg QOD (n=3)): 1
- TEAE Headache, grade 2 (DL3 400 mg QOD (n=3)): 1
- TEAE Nausea, grade 1 (DL3 400 mg QOD (n=3)): 1
- TEAE Nausea, grade 2 (DL3 400 mg QOD (n=3)): 2
- TEAE Neutrophil count decreased, grade 4 (DL3 400 mg QOD (n=3)): 1
- TEAE Peripheral sensory neuropathy, grade 1 (DL3 400 mg QOD (n=3)): 1
- TEAE Vomiting, grade 1 (DL3 400 mg QOD (n=3)): 2
- TRAE Abdominal Pain, > G3 (patients) (DL3 400 mg QOD oral, N = 3): 0
- TRAE Abdominal Pain, All grades (patients) (DL3 400 mg QOD oral, N = 3): 0
